Assay results: patent publication US7045516B1, “Benzoxazole derivatives and drugs containing the same as the active ingredient” (Koichi Shudo, priority 1998, dated 2006)
Where two headings read alike, the source gives them in different places.

How the values were obtained:
[1] = system: rat diarrhea under restriction stress; assay: Inhibitory action for rat diarrhea under restriction stress; format: in vivo; settings: oral, 30 min before restraint, male Wistar rats, 3 hours, nonlinear least square method
Method: L. Williams et al. [GASTROENTEROLOGY, 94, 611–621 (1988)] was determined as follows, and the results were analyzed by the nonlinear least square method. 8-Week old male Wistar rats were starved from the evening of the day before the test. Each test compound was orally administered to the rats. After 30 minutes, the rats were constrained by binding of their fore-limbs and hind-limbs with wires. The rats were left in individual gages on white sheets under luminescent lamps for 3 hours. […] The test was performed with groups of rats each consisting of 8 rats.

[2] = system: large bowel transportation ability of normal mice; assay: Effect on large bowel transportation ability of normal mice (glass bead excretion); format: in vivo, mouse; settings: ddY male mice, bead inserted after 30 minutes
Method: G. et al. [Drug Dev. Res., 9, 241-247, (1986)] was determined as follows. Each test compound was orally administered to 5- to 7-week old ddY male mice starved for about 4 hours. […] After the insertion of the glass bead, time (second) from the insertion to excretion of the bead from the anus was measured, and the time was used as an index of large bowel transportation ability. The test was performed by using groups of mice each consisting of 9 to 11 mice, and all of the procedures were performed under no anesthesia.

Reverse mutation test = assay: Reverse mutation test
Method: A reverse mutagenicity test was performed using the compound of Example 1 (b) of the present specification, hydrochloride of 5,7-dimethyl-2-(1-piperazinyl)benzoxazole (C), hydrochloride of 5-chloro-7-methyl-2-(4-methyl-1-piperazinyl)benzoxazole (D), and hydrochloride of 5-chloro-7-methyl-2-(4-methyl-1-homopiperazinyl) benzoxazole (E) (compounds disclosed in Japanese Patent Publication (KOKAI) No. 10-29987/1998), and the compound described in Reference Example 4 of the present specification, i.e., hydrochloride of 5-chloro-7-methyl-2-(1-piperazinyl) benzoxazole (F) according to the method of T. Matsushima et al. (Noropoth K. H., Springer, Berlin-Heidelberg-New York, “Short-Term Test Systems For Detecting Carcinogens”, pp. 273–285, 1980) referred by the guideline 471 of ORGANIZATION FOR ECONOMIC CO-OPERATION AND DEVELOPMENT.

[3] = Toxicity test, oral administration to mice; format: in vivo; settings: 300 mg/kg, suspended in distilled water, 7-week old male mice
Method: The compound of Example 1 (b) gave no death of the animal at a dose of 300 mg/kg.

[4] = Metabolic activity in human liver, in vitro system with S9 fraction; format: in vitro ADME; settings: 50 μmol/L test compound, 1 mg/mL human liver S9, NADPH production system, 37 °C, 15 minutes
Method: The test was performed in an in vitro system utilizing human liver S9 fraction in the presence of an NADPH production system described below. A reaction mixture of a total volume of 125 μL containing components at given final concentrations was prepared (50 μmol/L of test compound, 6 mmol/L of MgCl2.6H2O, 1 mmol/L of β-NADP^+, 10 mmol/L of glucose-6-phosphate (G-6-P), 0.7 U/mL of G-6-P dehydrogenase, 100 mmol/L of potassium phosphate (pH 7.4), 0.1 mmol/L of EDTANa2, and 1 mg/mL of human liver S9), and incubated at 37 C.° for 15 minutes. The reaction was stopped by the addition of 125 μL of N,N-dimethylformamide containing a substance for internal standard. The reaction mixture was centrifuged (2,000×g, 10 minutes), and the supernatant was subjected to HPLC analysis to determine the concentration of unchanged substance. Consumed amount was calculated from the concentration of unchanged substance, and the metabolic rate was represented as activity per unit amount of protein.

Compound | ED50 ([1]; Rattus norvegicus) [µg/kg] | time from insertion to excretion of glass bead ([2]; dose 3 mg/kg oral) [s] | time from insertion to excretion of glass bead ([2]; dose 10 mg/kg oral) [s] | time from insertion to excretion of glass bead ([2]; dose 30 mg/kg oral) [s] | reverse mutagenicity (Reverse mutation test) | death of the animal [3] | ED50 value [1] [µg/kg] | Metabolic activity [4] [nmol/min/mg protein] | reverse mutagenicity (Reverse mutation test; method of Matsushima et al., OECD guideline 471)
Cc1cc(Cl)cc2nc(N3CCCNCC3)oc12.Cl [Example 1 (b), 5-Chloro-2-(1-homopiperazinyl)-7-methylbenzoxazole hydrochloride] | 0.25 | 218.39 | 313.60 | 239.11 | negative | no death | – | – | –
Cc1cc(C)c2oc(N3CCNCC3)nc2c1.Cl [Hydrochloride of C, hydrochloride of 5,7-dimethyl-2-(1-piperazinyl)benzoxazole] | – | 234.01 | 251.00 | 357.08 | – | – | 27.2 | 0.06 | negative
